Experimental data published in patent publication US11129782B2, “Derivatives of PPD useful for coloring hair and skin” (National University of Singapore, priority 2017, dated 2021).

Key:
HaCaT cells = assay: In vitro cell cytotoxicity (MTT) assay on HaCaT cells; assay type: cell-based, human
Description: HaCaT (human, adult, low calcium, high temperature, human adult skin keratinocytes) cells were obtained from the IMB (Institute of Medical Biology) Skin Cell Bank. Fetal bovine serum (FBS), Dulbecco's minimum essential medium (DMEM) and trypsin EDTA solution were purchased from GE healthcare life sciences, Utah. Penicillin/streptomycin, dimethyl sulfoxide (DMSO), and phosphate buffered saline (PBS) were from Fisher Scientific (Singapore). Para-phenylenediamine (PPD) was purchased from Sigma Aldrich (Singapore). PPD analogues such as Dimer, trimer, ethyl hexyl para-phenylenediamine (EHPPD), hexyl para-phenylenediamine (HPPD), Bandrowski base (BB) were synthesized in house.
Cell viability was essentially determined using the MTT assay as described in the literature. The HaCaT cells were grown in DMEM with 10% FBS and 1% penicillin/streptomycin. The cells in T-75 cm^2 culture flasks were incubated with 5% CO2 at 37° C. in a humidified incubator. The HaCaT cells were grown to expected confluency and then they were harvested by trypsinizing the cell with 0.25% trypsin/EDTA and incubated at 37° C. for 5 min to obtain the complete cell detachment. After the incubation, cell pellets were resuspended, and washed twice with 1×PBS. The cell suspension in 1×PBS was counted and adjusted to 1×10^5/mL. A HaCaT keratinocyte suspension (100 μL in 1×PBS) with a cell concentration of 1×10^5 cells/mL) and a test solution (100 μL in milli-Q water) were combined in each well of two 96-well plates. Test solutions with a desired concentration were prepared by serial dilutions of the stock solutions with 1×PBS.
For the cytotoxicity experiment, cells were seeded at a density of 5×10^3 in 200 ul of medium into each well of 96-well plates. Cells were seeded as three sets of four replicates for each concentration. After 24 h of incubation, the cells were washed with PBS and cultured for 72 h with 200 ul of 10% FBS containing DMEM medium, together with the different concentrations of the test compounds ranging from 500 μM to 1.9 μM for PPD and analogues 1-5 and standard in a serial dilution. Then the medium was removed and 100 μl of MTT [3-(4,5-dimethylthiazol-2yl)-2,5-diphenyl-2H-tetrazolium bromide](1 mg/ml) (Alfa Aesar, Singapore) in PBS was added. At the end of 4 h incubation, the plates were removed from the incubator and plates were shaken for 5 min. The absorbance at 570 nm was determined using Bio-Tek plate reader. The cell viability rates were calculated from absorbance readings and represented as percentages of control value (untreated cells).

[1] = system: lysine peptide (Ac-RFAAKAA-COOH); assay: Direct Peptide Reactivity Assay, lysine peptide; conditions: for % of Lysine depletion, Avg / % of Lysine depletion, Rep 2 / % of Lysine depletion, Rep 3 / Reactivity Class: 1:50; for % of Lysine depletion, Rep 1: peptide 0.02 mM : test chemical 1 mM (1:50); for Reactivity Class: lysine
Method: (§1) The mass spectrometric analysis was performed by use of a AB SCIEX QTRAP 5500 tandem mass spectrometry (MS/MS) system (AB SCIEX, Framingham, Mass., USA) operating in triple quadrupole positive mode (ESI+) equipped with an AB Sciex Turbo Ion Spray interface. Acquisition and analysis of data were performed with Analyst software ver. 1.6.2 (Applied Biosystems).

[2] = Skin permeation in vertical Franz diffusion cells; assay type: in vitro ADME, porcine; conditions: 8 h; for Skin permeation (in words): porcine skin
Method: Porcine ears were generously provided by the NUS Department of Surgery. The ears were frozen at −80° C. until use (up to 3 months) and thawed at room temperature on the day preceding the experiment. Prior to the experiment, the skin was separated from the cartilage and dermatomed to a thickness of ˜1.0 mm using an Acculan™ 3Ti dermatome (Aesculap, Inc., B. Braun, USA).
The PPD and derivatives were dissolved in deionized water at 1% w/v. The PPD and PPD derivatives 1-5 solutions were purged with argon gas to minimize oxidation of the donor solution.
Skin penetration studies were carried out using vertical Franz diffusion cells (PermeGear, USA) immersed in a 37° C. water bath. The donor and receptor volumes were 900 µL and 5 mL, respectively; the mean surface area of penetration was 0.64 cm^2. Upon insertion of the skin pieces into the Franz cells, the skin was equilibrated for 45 min with PBS in the receptor compartment. After equilibration, the skin's trans-epidermal water loss (TEWL) was measured using an Aquaflux AF300 (Biox, UK) to assess the integrity of the skin's stratum corneum barrier. The donor solution, consisting of PPD or derivative 1-5 (n=3 Franz cells each), was then added to the donor compartment and the penetration experiments were conducted for 8 h. The receptor solutions were continuously stirred with magnetic stirrers. At fixed time points, aliquots of 200 μL were taken from the receptor solution of each cell and the receptor solution topped up with 200 μL of fresh PBS. At the end of the experiment, the donor and receptor solutions were removed and the cells dismantled. For the purpose of mass balance on the PPD, PPD derivatives 1-5 the skin pieces and swabs of their outer surfaces were collected and stored in acetonitrile for PPD or derivative 1-5 extraction. The donor solution as well as PBS used to thoroughly wash each part of the Franz cells were also collected.
PPD, PPD derivatives 1-5 and metabolite concentrations in all permeation and mass balance samples were measured by LCMS. PPD steady state fluxes and permeability coefficients were calculated by fitting the solution to Fick's second law of diffusion at the steady state to the linear part of each experimental cumulative amount curve.
The validated method LCMS was applied to quantify PPD, PPD derivative 1-5 and metabolites from skin permeation study samples. FIGS. 3 and 4 show LCMS spectra for the identification of PPD and PPD derivatives 1 and 2 and metabolites from skin permeation study experiment.

[3] = system: cysteine peptide (Ac-RFAACAA-COOH); assay: Direct Peptide Reactivity Assay, cysteine peptide; conditions: for % of Cysteine depletion, Avg / % of Cysteine depletion, Rep 2 / % of Cysteine depletion, Rep 3 / Reactivity Class: 1:10; for % of Cysteine depletion, Rep 1: peptide 0.02 mM : test chemical 0.2 mM (1:10); for Reactivity Class: cysteine
Method: For cysteine DPRA, an additional step was performed.
as §1

[4] = system: cysteine and lysine peptides; assay: Direct Peptide Reactivity Assay, mean of cysteine and lysine depletion (FIG. 12); conditions: for Sensitizing potential predicted from mean peptide depletion: cysteine 1:10 / lysine 1:50 model
[5] = Homo sapiens, HaCaT, 72 h, 72 h incubation, MTT

## Oc1ccc(CNc2ccc(Nc3ccc(NCc4ccc(O)cc4)cc3)cc2)cc1 [PPD derivative 14, 4-[[4-[4-[(4-hydroxyphenyl)methylamino]anilino]anilino]methyl]phenol]
HaCaT cells; [5]
  IC50: 5.4 µM

## COc1ccc(CNc2ccc(Nc3ccc(NCc4ccc(OC)cc4)cc3)cc2)cc1 [PPD derivative 12]
HaCaT cells; [5]
  IC50: 4.3 µM

## CCCCCCOc1cc(Nc2ccc(N)cc2)ccc1N [PPD derivative 5, 4-Amino-(3-hexyloxy)-4′-aminodiphenylamine]
HaCaT cells; 72 h incubation, MTT
  IC50: 14.3 µM
[1]; 20 min
  % of Lysine depletion, Avg: 6.3%
  % of Lysine depletion, Rep 2: 5.92%
  % of Lysine depletion, Rep 3: 6.2%
  % of Lysine depletion, Rep 1: 6.76%
  Reactivity Class: No or Minimal
[1]; 24 h
  % of Lysine depletion, Avg: 14.3%
  % of Lysine depletion, Rep 2: 15.2%
  % of Lysine depletion, Rep 3: 13.8%
  % of Lysine depletion, Rep 1: 13.8%
  Reactivity Class: Low
[2]; 1% W/V applied
  % Parent compound Penetrated (mean): 0%
  % Parent compound Recovery (mean): 98%
  % converted to metabolite (mean): 0.0118%
[2]
  Skin permeation (in words): did not permeate the skin at all
[2]; listed as PPD 5
  Skin permeation (in words): impermeable
[3]; 20 min
  % of Cysteine depletion, Avg: 51.2%
  % of Cysteine depletion, Rep 2: 52.9%
  % of Cysteine depletion, Rep 3: 49.9%
  % of Cysteine depletion, Rep 1: 50.9%
[3]; 24 h
  % of Cysteine depletion, Avg: 53.8%
  % of Cysteine depletion, Rep 2: 53.8%
  % of Cysteine depletion, Rep 3: 54.1%
  % of Cysteine depletion, Rep 1: 53.5%

## OC[C@H]1O[C@@H](O[C@H]2[C@H](O)[C@@H](O)C(O)O[C@@H]2CO)[C@H](O)[C@@H](O)[C@H]1O (stereo partly shown) [Lactose, reference compound]
[1]; 20 min
  % of Lysine depletion, Avg: 0%
  % of Lysine depletion, Rep 2: 0%
  % of Lysine depletion, Rep 3: 0%
  % of Lysine depletion, Rep 1: 0%
  Reactivity Class: No or Minimal
[1]; 24 h
  % of Lysine depletion, Avg: 0%
  % of Lysine depletion, Rep 2: 0%
  % of Lysine depletion, Rep 3: 0%
  % of Lysine depletion, Rep 1: 0%
  Reactivity Class: No or Minimal
[3]; 20 min
  % of Cysteine depletion, Avg: 0%
  % of Cysteine depletion, Rep 2: 0%
  % of Cysteine depletion, Rep 3: 0%
  % of Cysteine depletion, Rep 1: 0%
  Reactivity Class: No or Minimal
[3]; 24 h
  % of Cysteine depletion, Avg: 0.6%
  % of Cysteine depletion, Rep 2: 1%
  % of Cysteine depletion, Rep 3: 1%
  % of Cysteine depletion, Rep 1: 0%
  Reactivity Class: No or Minimal

## O=C1C=CC(=O)C=C1 [p-Benzoquinone, p-benzoquinone, reference compound]
[1]; 20 min
  % of Lysine depletion, Avg: 21.0%
  % of Lysine depletion, Rep 2: 20.6%
  % of Lysine depletion, Rep 3: 20%
  % of Lysine depletion, Rep 1: 22.5%
  Reactivity Class: Low
[1]; 24 h
  % of Lysine depletion, Avg: 88.7%
  % of Lysine depletion, Rep 2: 87.5%
  % of Lysine depletion, Rep 3: 91.6%
  % of Lysine depletion, Rep 1: 87.0%
  Reactivity Class: High
[3]; 20 min
  % of Cysteine depletion, Avg: 72.8%
  % of Cysteine depletion, Rep 2: 73.7%
  % of Cysteine depletion, Rep 3: 72.0%
  % of Cysteine depletion, Rep 1: 72.7%
  Reactivity Class: High
[3]; 24 h
  % of Cysteine depletion, Avg: 89.7%
  % of Cysteine depletion, Rep 2: 89.5%
  % of Cysteine depletion, Rep 3: 90%
  % of Cysteine depletion, Rep 1: 89.6%
  Reactivity Class: High

## CC(C)(C)c1cc(O)ccc1O [Tertbutylhydroquinone, reference compound]
HaCaT cells; [5]
  IC50: 27.9 µM

## Cc1ccc(CNc2ccc(Nc3ccc(NCc4ccc(C)cc4)cc3)cc2)cc1 [PPD derivative 13, N^4-(p-tolylmethyl)-N^1-[4-(p-tolylmethylamino)phenyl]benzene-1,4-diamine]
HaCaT cells; [5]
  IC50: 5.2 µM

## Cc1ccc(NCc2ccc(Nc3ccc(Nc4ccc(N)cc4)cc3)cc2)cc1 [PPD derivative 10, N^1-[4-(4-tolylaminomethyl)phenyl]-N^4-(4-aminophenyl)-1,4-benzenediamine]
[4]
  Sensitizing potential predicted from mean peptide depletion: weak sensitizer
[4]; mean of cysteine (1:10) and lysine (1:50), FIG. 12
  Mean peptide depletion: 23.0%
HaCaT cells; [5]
  IC50: 1.8 µM

## CCC(C)(C)C(=O)O[C@H]1C[C@@H](C)C=C2C=C[C@H](C)[C@H](CC[C@@H]3C[C@@H](O)CC(=O)O3)[C@H]21 [Simvastatin, reference compound]
HaCaT cells; Homo sapiens, HaCaT
  IC50: 9.15 µM
HaCaT cells; [5]
  IC50: 28.6 µM

## CCCCCCNc1ccc(N)cc1OCCCCCC [PPD derivative 16, (N^1-hexyl)(2-hexyloxy)-1,4-diaminobenzene]
[4]
  Sensitizing potential predicted from mean peptide depletion: moderate sensitizer
HaCaT cells; 72 h incubation, MTT
  IC50: 140 µM

## COc1cccc2c1C(=O)c1c(O)c3c(c(O)c1C2=O)C[C@@](O)(C(=O)CO)C[C@@H]3O[C@H]1C[C@H](N)[C@H](O)[C@H](C)O1 [Doxorubicin, reference compound]
HaCaT cells; [5]
  IC50: < 0.39 µM

## CC1=CC(=O)c2ccccc2C1=O [Menadione, reference compound]
HaCaT cells; [5]
  IC50: 3.56 µM

## O=[N+]([O-])c1ccc(CNc2ccc(Nc3ccc(NCc4ccc([N+](=O)[O-])cc4)cc3)cc2)cc1 [PPD derivative 11, N^4-[(4-nitrophenyl)methyl]-N^1-[4-[(4-nitrophenyl)methylamino]phenyl]-benzene-1,4-diamine]
HaCaT cells; [5]
  IC50: 6.4 µM

## CCOC(=O)/C=C\C(=O)OCC [Diethylmaleate, reference compound]
HaCaT cells; [5]
  IC50: > 100 µM
